In test [1] the test system is Nuclear-GFP BacMam 2.0 Virus (baculovirus). In words: Infectivity of PTM analog-labeled Nuclear-GFP BacMam baculovirus in U2-OS cells. In kind it is cell-based. Particulars: virus labeled in Sf9 cells with 50 uM analog; U2-OS cells incubated overnight with labeled virus; FIG. 5. The source says: Inhibition of insect cell baculovirus infectivity with azido fatty acid analogs: The BacMam system uses a modified insect cell virus (baculovirus) as a vehicle to efficiently deliver and express genes in mammalian cells. A Nuclear-GFP BacMam 2.0 expression system (Invitrogen, C10602) was used as a model to determine if PTM analog labeling of the virus would affect mammalian cell infectivity. Viruses were labeled with various PTM analogs and used to infect mammalian cells. Infectivity was determined by the expression of nuclear-GFP, as viral entry into the cell is required for expression of GFP protein, […]
Characterization of BacMam virus production: To verify, quantitate, and normalize the amount of enriched viruses obtained from insect cell supernatants, samples of each virus were lysed in SDS sample preparation buffer (SPB), sonicated with a probe tip sonicator, and heated at 90C to completely dissolve the viral proteins. Viral protein concentrations of the lysates were then determined. […]
Mammalian cell infection protocol: To determine if the PTM analog-labeled viruses retain the ability to infect mammalian cells, 50,000 U2-OS cells (human osteosarcoma cell line) were plated onto a 6 well-chamber glass bottom plate. […] The following day cells were imaged on AMG EVOS fluorescence microscope at 10× or 20× magnification using both white light and GFP filters (FIG. 5). […]

Another test has as its system HIV. In words: Infectivity of azide-labeled HIV, luciferase reporter assay on TZM/BI reporter cell line. Type of test: cell-based. The following applies: HIVNL4-3 labeled in CEMx174 cells; virus incubated 12 hours on TZM/BI; single cycle replication system; two luciferase reagents; FIGS. 3 and 4. Here is the method:
CEMx174 cells were transfected with HIVNL4-3 in a T-150 flask and the virus production was monitored by reverse transcriptase activity until peak virus production occurred (usually 7 to 9 days post transfection). Prior to transfection, the CEMx174 cells were spiked with the following azide-modified biomolecules: 15-azidopentadecanoic acid (50-100 μM), 12-azidododecanoic acid (50-100 μM), tetraacetylated N-azidoacetylgalactosamine (20-40 μM), and tetraacetylated N-azidoacetyl-D-mannosamine (20-40 μM).
Labeled virus was also obtained from the transfected cells. More specifically, virus-containing supernatants were collected and virus was purified through 20% sucrose as previously described (Graham, D. R. et al., Proteomics 2008, 8:4919-30). The purified virus was then mixed with the CLICK-IT® detection reagent, tetramethylrhodamine (TAMRA) alkyne and the CLICK-IT® Protein Reaction Buffer Kit (Invitrogen, Carlsbad, Calif.). Virus samples were run on a one-dimensional gel to reveal azide-labeled viral proteins (FIG. 2). […]
To examine the effect of the azide-modified biomolecules on the innate biology of the virus, the azide-labeled virus from the transfected cells was isolated and tested in cell infection studies. […] Viral infectivity was determined by measuring cellular luciferase activities with two different luciferase reagents.

`[N-]=[N+]=NCCCCCCCCCCCCCCC(=O)O` [15-azidopentadecanoic acid]: the “nuclear-GFP expression (viral entry)” value in test [1] is reported as “no nuclear-GFP expression”.

In the case of `[N-]=[N+]=NCCCCCCCCCCCC(=O)O` [12-azidododecanoic acid], the “impact on the infectivity of the virus (cellular luciferase activity)” value in the test with HIV is recorded as “profound impact on the infectivity of the virus”. In test [1], the “nuclear-GFP expression (viral entry)” value was “no nuclear-GFP expression”.

The values above are taken from patent publication US20130209550A1, “Anti-Viral Azide Containing Compounds” (LIFE TECHNOLOGIES CORPORATION, priority 2010, published 2013).
